One assay concerns yeast ODC. The following applies: read-out: concentration necessary for 50% inhibition; cited from earlier work.
In another assay the target is S. cerevisiae ODC (Saccharomyces cerevisiae, UniProt P08432). The assay can be described thus: biochemical.
For assay [1], the target named is T1, mtDAPDC (Mycobacterium tuberculosis, UniProt P9WIU7). The assay can be described thus: Inhibition assay for mtDAPDC, coupled carbon dioxide assay. It is filed as biochemical.
The target of assay [2] is T1, mtDAPDC. The assay can be described thus: HPLC assay for reaction of mtDAPDC with alternate substrates. Type of assay: biochemical. Particulars: reaction 25 °C, 12–16 hours; OPA derivatization.
For assay [3], the target named is T1, mtDAPDC. The experiment in a line: Steady-state coupled carbon dioxide assay, mtDAPDC. It is filed as biochemical. Particulars: for kcat / Km: errors in parentheses; for Km: meso-DAP value corrected for the 50% D,L-DAP present.
[4] abbreviates: D,L-DAP held at Km (400 μM), competitive inhibition assumed (eq 1).

Usually Ki stands for the dissociation constant of the complex between target and ligand, obtained from inhibition or displacement. Usually Km stands for the concentration of substrate that gives half-maximal velocity.

“Also recorded” adds a separate entry of the source. Read-outs that look alike come from different tables or passages of the source.

T1 sequence (P9WIU7 whole entry, looked up): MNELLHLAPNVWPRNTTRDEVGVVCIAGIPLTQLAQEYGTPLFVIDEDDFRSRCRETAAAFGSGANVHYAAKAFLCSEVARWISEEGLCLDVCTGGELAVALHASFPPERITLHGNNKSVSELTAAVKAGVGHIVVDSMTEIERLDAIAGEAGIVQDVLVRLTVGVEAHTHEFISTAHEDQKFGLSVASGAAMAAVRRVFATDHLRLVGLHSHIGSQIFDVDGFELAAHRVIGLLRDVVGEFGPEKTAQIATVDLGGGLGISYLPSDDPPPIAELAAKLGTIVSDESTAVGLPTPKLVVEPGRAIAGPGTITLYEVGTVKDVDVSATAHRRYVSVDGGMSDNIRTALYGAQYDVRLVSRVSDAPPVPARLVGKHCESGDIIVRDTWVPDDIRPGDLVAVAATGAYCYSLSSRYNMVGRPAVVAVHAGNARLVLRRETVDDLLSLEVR
S. cerevisiae ODC, sequence (P08432 whole entry): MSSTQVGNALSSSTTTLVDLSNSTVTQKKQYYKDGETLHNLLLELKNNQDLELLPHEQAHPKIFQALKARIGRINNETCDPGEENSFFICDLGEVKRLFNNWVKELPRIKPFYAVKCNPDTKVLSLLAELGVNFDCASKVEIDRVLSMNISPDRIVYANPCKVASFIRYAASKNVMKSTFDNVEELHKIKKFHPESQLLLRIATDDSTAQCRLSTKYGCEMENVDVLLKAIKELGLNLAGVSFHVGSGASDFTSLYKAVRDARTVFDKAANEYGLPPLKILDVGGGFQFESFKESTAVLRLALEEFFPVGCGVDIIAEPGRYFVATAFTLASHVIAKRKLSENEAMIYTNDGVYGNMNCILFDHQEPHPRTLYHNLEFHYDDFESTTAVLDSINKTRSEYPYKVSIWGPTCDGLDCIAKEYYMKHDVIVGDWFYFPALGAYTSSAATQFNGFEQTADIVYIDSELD

For the molecule `NCCCCN` [putrescine], the IC50 in the assay with yeast ODC was 100 µM. For the same molecule, the affinity on S. cerevisiae ODC, expressed as Ki, was 250 ± 45 µM.

For `NC(CCCC(N)C(=O)O)C(=O)O` [L,L-DAP], the Ki on mtDAPDC [1] (setting [4]) turned out to be 1600 µM. Further, the “binding weaker than D,L-DAP” value on mtDAPDC [1] (Ki compared with Km of D,L-DAP) is recorded as ~ 4 fold. Moreover, the “decarboxylation detected by HPLC” value at mtDAPDC [2] is recorded as “no detectable amounts of their decarboxylation products; also recorded: not decarboxylated”.

As to `N[C@H](CCC[C@@H](N)C(=O)O)C(=O)O` [D,D-DAP], at mtDAPDC [1] (at concentrations of 6 mM (data not shown)), the “inhibition of the D,L-DAP reaction” value was “no detectable inhibition”. At mtDAPDC [3], the kcat was 1.8 (0.3) s^−1 and the Km came to 17 mM. Also, at mtDAPDC [3] (relative to D,L-DAP), the “kcat less than with the natural substrate” value is on record as 4 fold and the “kcat/KM lower than D,L-DAP” value was ~ 100 fold. For the same molecule, the “decarboxylation detected by HPLC” value at mtDAPDC [2] was “decarboxylated”.

The molecule `NCCCC[C@@H](N)C(=O)O` [D-lysine] came in with a Ki on mtDAPDC [1] (setting [4]) of 26000 µM. In addition, the “decarboxylation detected by HPLC” value at mtDAPDC [2] is listed as “decarboxylated”.

Regarding `N[C@@H](CCC[C@H](N)C(=O)O)C(=O)O` [D,L-DAP, D,L-diaminopimelate], at mtDAPDC [3], the kcat is 7.1 (0.1) s^−1 and the Km was determined as 0.43 mM.

As for `NCCCC[C@H](N)C(=O)O` [L-lysine], the Ki at mtDAPDC [1] came to 1800 µM. In addition, the “decarboxylation detected by HPLC” value on mtDAPDC [2] is given as “no detectable amounts of their decarboxylation products”.
